Earlier results on two compounds are cited in patent US6602892B1, “Methods for nicotine replacement dosage determination” (priority 1993, dated 2003).

For this data set the following is noted: in vivo.

As to `CN1C(=O)CC[C@H]1c1cccnc1` [cotinine], the half life entry is “about 20 hours”.
Consider `CN1CCCC1c1cccnc1` (centres unmarked) [nicotine], for which the half life entry is listed as “two”.
